Results reported in US20040024024A1, “Aromatic sulfone hydroxamates and their use as protease inhibitors” (priority 2001, published 2004).

What was measured:
Test in all cases: In vitro MMP inhibition, IC50 determination (fluorogenic substrate I)
Type in all cases: biochemical
[1] = molecular target: T1, Human recombinant MMP-9 (Homo sapiens, UniProt P14780)
T1 construct: made in house; host or cells: MMP-9-transfected HT1080 cells (spent media)
Method in brief: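 MMP-9 proenzyme purified from transfected HT1080 cell media, activated with APMA or trypsin. Compound dilutions in pH 7.5 Tris/NaCl/CaCl2 buffer with 0.05% polyoxyethylene 23 lauryl ether, incubated at room temperature with 4 μM MCA/Dpa substrate I. IC50 from fluorescence loss (ex 328, em 415 nm) versus inhibitor concentration.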

[2] = molecular target: T2, Human recombinant MMP-14 (Homo sapiens, UniProt P50281)
T2 construct: The catalytic domain enzyme was expressed in E. coli inclusion bodies, solubilized in urea; made in house
Method in brief: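 Catalytic-domain MMP-14, expressed in E. coli and refolded, activated with APMA or trypsin; compounds incubated at room temperature with 4 μM fluorogenic substrate I (MCA-PLGL-Dpa-AR-NH2) in Tris/NaCl/CaCl2 buffer, pH 7.5. Fluorescence at ex 328/em 415 nm; IC50 from loss of fluorescence versus inhibitor concentration.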

[3] = molecular target: T3, Human recombinant MMP-13 (Homo sapiens, UniProt P45452)
T3 construct: made in house; host or cells: baculovirus / insect cells
Method in brief: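 Fluorescence at 415 nm (excitation 328 nm) reports Gly-Leu cleavage of 4 μM quenched methoxycoumarin peptide substrate I. Human recombinant MMP-13, activated by trypsin or APMA, was incubated at room temperature with varied inhibitor concentrations in pH 7.5 Tris/NaCl/CaCl2 buffer; IC50 derived from reduced fluorescence.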

[4] = molecular target: T4, Human recombinant MMP-2 (Homo sapiens, UniProt P08253)
T4 construct: made in house; host or cells: MMP-2-transfected p2AHT2 cells
T4 sequence (P08253 110-660): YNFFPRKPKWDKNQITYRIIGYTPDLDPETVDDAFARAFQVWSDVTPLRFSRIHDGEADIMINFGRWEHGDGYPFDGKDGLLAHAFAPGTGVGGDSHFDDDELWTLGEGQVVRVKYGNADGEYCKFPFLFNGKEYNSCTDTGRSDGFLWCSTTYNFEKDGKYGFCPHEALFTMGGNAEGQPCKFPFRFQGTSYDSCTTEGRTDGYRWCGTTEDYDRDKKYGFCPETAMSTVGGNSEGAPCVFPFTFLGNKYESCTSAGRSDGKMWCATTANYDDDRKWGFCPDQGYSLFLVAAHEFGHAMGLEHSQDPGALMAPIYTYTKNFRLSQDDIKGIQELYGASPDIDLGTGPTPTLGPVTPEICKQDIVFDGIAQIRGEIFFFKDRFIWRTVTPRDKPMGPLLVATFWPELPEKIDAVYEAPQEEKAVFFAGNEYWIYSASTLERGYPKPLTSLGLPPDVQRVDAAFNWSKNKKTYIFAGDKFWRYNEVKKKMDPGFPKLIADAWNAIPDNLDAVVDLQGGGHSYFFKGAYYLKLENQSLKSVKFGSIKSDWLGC
Method in brief: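 APMA- or trypsin-activated recombinant MMP-2 was incubated at room temperature with serial inhibitor dilutions in Tris buffer pH 7.5 (100 mM NaCl, 10 mM CaCl2, 0.05% Brij), with DMSO from 1% stocks, and 4 μM substrate I. Cleavage was read by fluorescence at 328/415 nm; IC50 was taken from the loss of fluorescence versus inhibitor concentration.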

[5] = molecular target: T5, Human recombinant MMP-1 (Homo sapiens, UniProt P03956)
T5 construct: made in house; host or cells: MMP-1-transfected HT-1080 cells (spent media)
T5 sequence (P03956 100-469): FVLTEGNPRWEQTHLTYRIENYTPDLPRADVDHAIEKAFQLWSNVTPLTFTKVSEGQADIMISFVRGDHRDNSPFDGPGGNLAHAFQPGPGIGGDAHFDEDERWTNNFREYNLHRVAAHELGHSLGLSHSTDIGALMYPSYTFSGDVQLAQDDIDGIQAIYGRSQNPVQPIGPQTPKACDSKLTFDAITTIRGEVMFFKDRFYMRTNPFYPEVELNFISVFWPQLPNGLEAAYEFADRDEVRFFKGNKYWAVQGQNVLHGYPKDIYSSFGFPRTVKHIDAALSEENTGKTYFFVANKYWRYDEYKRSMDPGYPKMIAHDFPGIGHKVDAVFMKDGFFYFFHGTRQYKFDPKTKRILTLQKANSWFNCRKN
Method in brief: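 APMA- or trypsin-activated enzyme, purified from spent media of transfected HT-1080 cells, incubated at room temperature with 4 μM MCA-Pro-Leu-Gly-Leu-Dpa-Ala-Arg-NH2 and graded inhibitor in Tris buffer pH 7.5 (10 mM CaCl2, 0.05% Brij). Cleavage read by fluorescence (ex 328/em 415 nm); IC50 from fluorescence reduction versus inhibitor concentration.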

[6] = value outside parentheses (Ki in parenthesis)
[7] = substrate (I) 4 μM, room temperature, values not in parenthesis

T1 sequence (P14780 107-707 limits assumed): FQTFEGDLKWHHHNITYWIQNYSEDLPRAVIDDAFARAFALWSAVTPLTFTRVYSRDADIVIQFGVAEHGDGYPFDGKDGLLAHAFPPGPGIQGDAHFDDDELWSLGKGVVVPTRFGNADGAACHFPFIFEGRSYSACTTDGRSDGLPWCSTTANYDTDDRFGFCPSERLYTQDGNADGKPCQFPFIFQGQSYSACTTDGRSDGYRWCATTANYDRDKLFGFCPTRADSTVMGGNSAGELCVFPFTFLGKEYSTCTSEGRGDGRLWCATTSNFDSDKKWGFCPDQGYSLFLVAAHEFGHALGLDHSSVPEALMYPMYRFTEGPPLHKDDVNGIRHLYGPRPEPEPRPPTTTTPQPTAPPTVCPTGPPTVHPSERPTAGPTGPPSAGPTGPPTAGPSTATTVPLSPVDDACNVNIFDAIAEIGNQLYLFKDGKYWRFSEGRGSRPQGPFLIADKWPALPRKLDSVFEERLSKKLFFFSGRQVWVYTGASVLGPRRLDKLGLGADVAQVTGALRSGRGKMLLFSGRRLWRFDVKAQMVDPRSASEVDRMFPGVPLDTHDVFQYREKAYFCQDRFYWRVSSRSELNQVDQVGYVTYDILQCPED

Compound: O=C(NO)C1(S(=O)(=O)c2ccc(OCCCSc3nc4cc(Cl)ccc4s3)cc2)CCOCC1 [Example 284]
- IC50 ([1]; value outside parenthesis): 18.5 nM
- IC50 ([2]; value outside parenthesis): > 10000 nM
- IC50 ([3]; value outside parenthesis): 1.1 nM
- IC50 ([4]; value outside parenthesis): 10.1 nM
- IC50 ([5]; value outside parenthesis): > 10000 nM

Compound: COc1cc2c(cc1OC)C(C)N(C(=O)OCCCCOc1ccc(S(=O)(=O)C3(C(=O)NO)CCOCC3)cc1)CC2 (stereo not drawn) [Example 335]
- IC50 [1, 6]: 172 nM
- IC50 [2, 6]: > 10000 nM
- IC50 [3, 6]: 6.5 nM
- IC50 [4, 6]: 2.3 nM
- IC50 [5, 6]: > 10000 nM

Compound: O=C(NO)C1(S(=O)(=O)c2ccc(OCCCc3nc(-c4cccc(OC(F)(F)F)c4)no3)cc2)CCOCC1 [Example 266]
- IC50 ([1]; value outside parenthesis): 203 nM
- IC50 ([2]; value outside parenthesis): > 10000 nM
- IC50 ([3]; value outside parenthesis): 9.1 nM
- IC50 ([4]; value outside parenthesis): 391 nM
- IC50 ([5]; value outside parenthesis): > 10000 nM

Compound: COc1ccc(OCCCOc2ccc(S(=O)(=O)C3(C(=O)NO)CCN(C4CC4)CC3)cc2)cc1 [Example 442]
- IC50 [1, 6]: 5.4 nM
- IC50 [2, 6]: 997 nM
- IC50 [3, 6]: 1.8 nM
- IC50 [4, 6]: 6.2 nM
- IC50 [5, 6]: > 10000 nM

Compound: O=C(NO)C1(S(=O)(=O)c2ccc(OCCCc3nnc(-c4ccccc4Cl)o3)cc2)CCOCC1 [Example 261]
- IC50 ([1]; value outside parenthesis): 1190 nM
- IC50 ([2]; value outside parenthesis): > 10000 nM
- IC50 ([3]; value outside parenthesis): 1.9 nM
- IC50 ([4]; value outside parenthesis): 178 nM
- IC50 ([5]; value outside parenthesis): > 10000 nM

Compound: O=C(NO)C1(S(=O)(=O)c2ccc(OCCCc3nc(-c4ccc5c(c4)OCO5)no3)cc2)CCOCC1 [Example 215]
- IC50 ([1]; value outside parenthesis): 768 nM
- IC50 ([2]; value outside parenthesis): > 10000 nM
- IC50 ([3]; value outside parenthesis): 0.3 nM
- IC50 ([4]; value outside parenthesis): 20.3 nM
- IC50 ([5]; value outside parenthesis): > 10000 nM

Compound: COc1ccc(/C(C#N)=C/CCCOc2ccc(S(=O)(=O)C3(C(=O)NO)CCOCC3)cc2)cc1 [Example 27, 4-[[4-[[(4Z)-5-cyano-5-(4-methoxyphenyl)-4-pentenyl]oxy]phenyl]sulfonyl]tetrahydro-N-hydroxy-2H-pyran-4-carboxamide]
- IC50 [1, 7]: 9370 nM
- IC50 [2, 7]: > 10000 nM
- IC50 [3, 7]: 0.2 nM
- IC50 [4, 7]: 83.9 nM
- IC50 [5, 7]: > 10000 nM

Compound: COc1ccc(OCCCOc2ccc(S(=O)(=O)C3(C(=O)NO)CCOCC3)cc2)cc1 [Example 447]
- IC50 [1, 6]: 12.2 nM
- IC50 [2, 6]: 1360 nM
- IC50 [3, 6]: 2 nM
- IC50 [4, 6]: 8.9 nM
- IC50 [5, 6]: > 10000 nM

Compound: O=C(NO)C1(S(=O)(=O)c2ccc(OCCCn3nnc(-c4ccc(OC(F)(F)F)cc4)n3)cc2)CCOCC1 [Example 656]
- IC50 ([1]; value outside parentheses): 1180 nM
- IC50 ([2]; value outside parentheses): > 10000 nM
- IC50 ([3]; value outside parentheses): 0.66 nM
- IC50 ([4]; value outside parentheses): 408 nM
- IC50 ([5]; value outside parentheses): > 10000 nM

Compound: Cc1ccc(-c2nnc(CCCOc3ccc(S(=O)(=O)C4(C(=O)NO)CCOCC4)cc3)o2)c(C)c1 [Example 204]
- IC50 ([1]; value outside parenthesis): 1820 nM
- IC50 ([2]; value outside parenthesis): > 10000 nM
- IC50 ([3]; value outside parenthesis): 0.6 nM
- IC50 ([4]; value outside parenthesis): 146 nM
- IC50 ([5]; value outside parenthesis): > 10000 nM

Compound: COc1ccc(CC(=O)CCCOc2ccc(S(=O)(=O)C3(C(=O)NO)CCOCC3)cc2)cc1 [Example 301]
- IC50 [1, 6]: 9.1 nM
- IC50 [2, 6]: 320 nM
- IC50 [3, 6]: < 0.1 nM
- IC50 [4, 6]: 0.2 nM
- IC50 [5, 6]: 3660 nM

Compound: O=C(NO)C1(S(=O)(=O)c2ccc(OCCOCc3cccc(OC(F)(F)F)c3)cc2)CCOCC1 [Example 660]
- IC50 ([1]; value outside parentheses): 83.1 nM
- IC50 ([2]; value outside parentheses): 3490 nM
- IC50 ([3]; value outside parentheses): 1.41 nM
- IC50 ([4]; value outside parentheses): 18.7 nM
- IC50 ([5]; value outside parentheses): 7350 nM

Compound: O=C(NO)C1(S(=O)(=O)c2ccc(OCCCOCc3ccccn3)cc2)CCOCC1 [Example 519]
- IC50 ([1]; value outside parentheses): 422 nM
- IC50 ([2]; value outside parentheses): > 10000 nM
- IC50 ([3]; value outside parentheses): 2.18 nM
- IC50 ([4]; value outside parentheses): 170 nM
- IC50 ([5]; value outside parentheses): > 10000 nM

Compound: O=C(CCCCOc1ccc(S(=O)(=O)C2(C(=O)NO)CCOCC2)cc1)c1ccc2ccccc2c1 [Example 489]
- IC50 [1, 6]: > 10000 nM
- IC50 [2, 6]: > 10000 nM
- IC50 [3, 6]: 0.4 nM
- IC50 [4, 6]: 58.2 nM
- IC50 [5, 6]: > 10000 nM

Compound: O=C(NO)C1(S(=O)(=O)c2ccc(OCCCc3nc(-c4ccccc4)no3)cc2)CCOCC1 [Example 241]
- IC50 ([1]; value outside parenthesis): 944 nM
- IC50 ([2]; value outside parenthesis): > 10000 nM
- IC50 ([3]; value outside parenthesis): 1.3 nM
- IC50 ([4]; value outside parenthesis): 60.2 nM
- IC50 ([5]; value outside parenthesis): > 10000 nM

Compound: O=C(NO)C1(S(=O)(=O)c2ccc(OC3CCOCC3)cc2)CCOCC1 [Example 480]
- IC50 [1, 6]: 60 nM
- IC50 [2, 6]: 1400 nM
- IC50 [3, 6]: 11 nM
- IC50 [4, 6]: 18 nM
- IC50 [5, 6]: 4200 nM

Compound: COc1ccc(-c2nnc(CCCOc3ccc(S(=O)(=O)C4(C(=O)NO)CCOCC4)cc3)o2)cc1 [Example 501]
- IC50 ([1]; value outside parentheses): 7710 nM
- IC50 ([2]; value outside parentheses): > 10000 nM
- IC50 ([3]; value outside parentheses): 1.4 nM
- IC50 ([4]; value outside parentheses): 184 nM
- IC50 ([5]; value outside parentheses): > 10000 nM

Compound: Cc1cc(C(=O)CCCCOc2ccc(S(=O)(=O)C3(C(=O)NO)CCN(C4CC4)CC3)cc2)ccc1OC(C)C [Example 254]
- IC50 ([1]; value outside parenthesis): 968 nM
- IC50 ([2]; value outside parenthesis): > 10000 nM
- IC50 ([3]; value outside parenthesis): 1.7 nM
- IC50 ([4]; value outside parenthesis): 138 nM
- IC50 ([5]; value outside parenthesis): > 10000 nM

Compound: O=C(NO)C1(S(=O)(=O)c2ccc(OCCCc3nnc(CC4CCCCC4)o3)cc2)CCOCC1 [Example 262]
- IC50 ([1]; value outside parenthesis): 1700 nM
- IC50 ([2]; value outside parenthesis): > 10000 nM
- IC50 ([3]; value outside parenthesis): 3 nM
- IC50 ([4]; value outside parenthesis): 118 nM
- IC50 ([5]; value outside parenthesis): > 10000 nM

Compound: COc1ccc(-c2coc(CCCOc3ccc(S(=O)(=O)C4(C(=O)NO)CCOCC4)cc3)n2)cc1 [Example 30, tetrahydro-N-hydroxy-4-[[4-[3-[4-(4-methoxyphenyl)-2-oxazolyl]propoxy]phenyl]sulfonyl]-2Hpyran-4-carboxamide]
- IC50 [1, 7]: 809 nM
- IC50 [2, 7]: > 10000 nM
- IC50 [3, 7]: 1.3 nM
- IC50 [4, 7]: 22.6 nM
- IC50 [5, 7]: > 10000 nM

Compound: O=C(NO)C1(S(=O)(=O)c2ccc(OCCCc3nc(-c4c(Cl)cccc4Cl)no3)cc2)CCOCC1 [Example 214]
- IC50 ([1]; value outside parenthesis): 4240 nM
- IC50 ([2]; value outside parenthesis): > 10000 nM
- IC50 ([3]; value outside parenthesis): 3.3 nM
- IC50 ([4]; value outside parenthesis): 15.8 nM
- IC50 ([5]; value outside parenthesis): > 10000 nM
